Source: PubChem BioAssay AID1963867 (Molecular Pharmacology Branch, DTP, NCI, 2024)

Tested on: KRAS-mutant PDC tumor spheroid with HUVEC/MSC, viability
Test: Anticancer human tumor 327498-153-R-J2-PDC patient-derived uterine carcinosarcoma cell line growth inhibition [KRAS2]
Details: for IC50: curve of first compound; for viability, T/C: stronger effect = lower value
How it was run: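 Combination screen of spheroid viability in tumor-cell co-cultures with endothelial (HUVEC) and mesenchymal stem cell stroma. Each agent was tested in half-log dilutions, topping at clinical Cmax or at 10 microM without a known Cmax.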

[1] = second compound 0.1 µM, first compound 0.000316 µM
[2] = second compound 0.1 µM, first compound 0.001 µM
[3] = second compound 0.1 µM, first compound 0.00316 µM
[4] = second compound 0.1 µM, first compound 0.01 µM
[5] = second compound 0.1 µM, first compound 0.0316 µM
[6] = second compound 0.316 µM, first compound 0.000316 µM
[7] = second compound 0.316 µM, first compound 0.001 µM
[8] = second compound 0.316 µM, first compound 0.00316 µM
[9] = second compound 0.316 µM, first compound 0.01 µM
[10] = second compound 0.316 µM, first compound 0.0316 µM
[11] = second compound 1 µM, first compound 0.000316 µM
[12] = second compound 1 µM, first compound 0.001 µM
[13] = second compound 1 µM, first compound 0.00316 µM
[14] = second compound 1 µM, first compound 0.01 µM
[15] = second compound 1 µM, first compound 0.0316 µM
[16] = second compound 3.16 µM, first compound 0.000316 µM
[17] = second compound 3.16 µM, first compound 0.001 µM
[18] = second compound 3.16 µM, first compound 0.00316 µM
[19] = second compound 3.16 µM, first compound 0.01 µM
[20] = second compound 3.16 µM, first compound 0.0316 µM
[21] = second compound 10 µM, first compound 0.000316 µM
[22] = second compound 10 µM, first compound 0.001 µM
[23] = second compound 10 µM, first compound 0.00316 µM
[24] = second compound 10 µM, first compound 0.01 µM
[25] = second compound 10 µM, first compound 0.0316 µM
[26] = second compound 0.1 µM, first compound 0.1 µM
[27] = second compound 0.316 µM, first compound 0.1 µM
[28] = second compound 1 µM, first compound 0.1 µM
[29] = second compound 3.16 µM, first compound 0.1 µM
[30] = second compound 10 µM, first compound 0.1 µM
[31] = second compound 0.1 µM, first compound 0.316 µM
[32] = second compound 0.1 µM, first compound 1 µM
[33] = second compound 0.1 µM, first compound 3.16 µM
[34] = second compound 0.1 µM, first compound 10 µM
[35] = second compound 0.316 µM, first compound 0.316 µM
[36] = second compound 0.316 µM, first compound 1 µM
[37] = second compound 0.316 µM, first compound 3.16 µM
[38] = second compound 0.316 µM, first compound 10 µM
[39] = second compound 1 µM, first compound 0.316 µM
[40] = second compound 1 µM, first compound 1 µM
[41] = second compound 1 µM, first compound 3.16 µM
[42] = second compound 1 µM, first compound 10 µM
[43] = second compound 3.16 µM, first compound 0.316 µM
[44] = second compound 3.16 µM, first compound 1 µM
[45] = second compound 3.16 µM, first compound 3.16 µM
[46] = second compound 3.16 µM, first compound 10 µM
[47] = second compound 10 µM, first compound 0.316 µM
[48] = second compound 10 µM, first compound 1 µM
[49] = second compound 10 µM, first compound 3.16 µM
[50] = second compound 10 µM, first compound 10 µM
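Note: spheroids exposed to agents for seven days before reading.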
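Throughout, for viability, T/C: 100% = DMSO vehicle wells so lower means fewer viable cells.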

CC(=O)Nc1cccc(-n2c(=O)n(C3CC3)c(=O)c3c(Nc4ccc(I)cc4F)n(C)c(=O)c(C)c32)c1 + CNCc1ccccc1-c1csc(C(C)Nc2nc(C)nc3cc(OC)c(OC)cc23)c1
IC50 (second compound 0.1 µM): 0.00434 µM
IC50 (second compound 0.316 µM): 0.00468 µM
IC50 (second compound 1 µM): 0.00235 µM
IC50 (second compound 3.16 µM): < 0.0001 µM
IC50 (second compound 10 µM): < 0.0001 µM
viability, T/C (second compound 0.1 µM, first compound 0.0001 µM): 84%
viability, T/C [1]: 67%
viability, T/C [2]: 61.8%
viability, T/C [3]: 56.1%
viability, T/C [4]: 43.9%
viability, T/C [5]: 29.6%
viability, T/C (second compound 0.316 µM, first compound 0.0001 µM): 71.6%
viability, T/C [6]: 67.8%
viability, T/C [7]: 58.4%
viability, T/C [8]: 51.3%
viability, T/C [9]: 48.5%
viability, T/C [10]: 27%
viability, T/C (second compound 1 µM, first compound 0.0001 µM): 70.9%
viability, T/C [11]: 60.8%
viability, T/C [12]: 53.9%
viability, T/C [13]: 49.3%
viability, T/C [14]: 41.9%
viability, T/C [15]: 23.6%
viability, T/C (second compound 3.16 µM, first compound 0.0001 µM): 37.2%
viability, T/C [16]: 38.7%
viability, T/C [17]: 22.7%
viability, T/C [18]: 0.12%
viability, T/C [19]: 5.68%
viability, T/C [20]: 2.54%
viability, T/C (second compound 10 µM, first compound 0.0001 µM): 0.18%
viability, T/C [21]: 0.87%
viability, T/C [22]: 0.14%
viability, T/C [23]: 0.14%
viability, T/C [24]: 0.15%
viability, T/C [25]: 0.21%

CC(C)n1nc(-c2ccc3oc(N)nc3c2)c2c(N)ncnc21 + CNCc1ccccc1-c1csc(C(C)Nc2nc(C)nc3cc(OC)c(OC)cc23)c1
IC50 (second compound 0.1 µM): 0.00487 µM
IC50 (second compound 0.316 µM): 0.00421 µM
IC50 (second compound 1 µM): 0.0023 µM
IC50 (second compound 3.16 µM): < 0.000316 µM
IC50 (second compound 10 µM): < 0.000316 µM
viability, T/C [1]: 87.6%
viability, T/C [2]: 80.3%
viability, T/C [3]: 59.9%
viability, T/C [4]: 33.4%
viability, T/C [5]: 13.8%
viability, T/C [26]: 7.32%
viability, T/C [6]: 76.8%
viability, T/C [7]: 73.2%
viability, T/C [8]: 56%
viability, T/C [9]: 30.4%
viability, T/C [10]: 10.3%
viability, T/C [27]: 6.25%
viability, T/C [11]: 68.2%
viability, T/C [12]: 63.9%
viability, T/C [13]: 43.4%
viability, T/C [14]: 25.6%
viability, T/C [15]: 7.89%
viability, T/C [28]: 4.25%
viability, T/C [16]: 20.1%
viability, T/C [17]: 0.14%
viability, T/C [18]: 1.09%
viability, T/C [19]: 0.2%
viability, T/C [20]: 0.04%
viability, T/C [29]: 1.36%
viability, T/C [21]: 0.49%
viability, T/C [22]: 0.14%
viability, T/C [23]: 0.93%
viability, T/C [24]: 0.51%
viability, T/C [25]: 0.24%
viability, T/C [30]: 0.39%

CC1(C)CCC(CN2CCN(c3ccc(C(=O)NS(=O)(=O)c4ccc(NCC5CCOCC5)c([N+](=O)[O-])c4)c(Oc4cnc5[nH]ccc5c4)c3)CC2)=C(c2ccc(Cl)cc2)C1 + CNCc1ccccc1-c1csc(C(C)Nc2nc(C)nc3cc(OC)c(OC)cc23)c1
IC50 (second compound 0.1 µM): 3.28 µM
IC50 (second compound 0.316 µM): 2.71 µM
IC50 (second compound 1 µM): 1.93 µM
IC50 (second compound 3.16 µM): < 0.0316 µM
IC50 (second compound 10 µM): < 0.0316 µM
viability, T/C [5]: 90.5%
viability, T/C [26]: 78.1%
viability, T/C [31]: 79.4%
viability, T/C [32]: 77.5%
viability, T/C [33]: 50.8%
viability, T/C [34]: 13.7%
viability, T/C [10]: 84.3%
viability, T/C [27]: 79.5%
viability, T/C [35]: 73.2%
viability, T/C [36]: 76.4%
viability, T/C [37]: 46%
viability, T/C [38]: 9.74%
viability, T/C [15]: 72.5%
viability, T/C [28]: 72.8%
viability, T/C [39]: 71.3%
viability, T/C [40]: 72.3%
viability, T/C [41]: 33.2%
viability, T/C [42]: 1.07%
viability, T/C [20]: 1.08%
viability, T/C [29]: 0.13%
viability, T/C [43]: 0.22%
viability, T/C [44]: 0.13%
viability, T/C [45]: 0.09%
viability, T/C [46]: 0.25%
viability, T/C [25]: 0.41%
viability, T/C [30]: 0.15%
viability, T/C [47]: 0.26%
viability, T/C [48]: 0.14%
viability, T/C [49]: 0.16%
viability, T/C [50]: 0.23%

COC(=O)c1ccc2c(C(=Nc3ccc(N(C)C(=O)CN4CCN(C)CC4)cc3)c3ccccc3)c(O)[nH]c2c1 + CNCc1ccccc1-c1csc(C(C)Nc2nc(C)nc3cc(OC)c(OC)cc23)c1
IC50 (second compound 0.1 µM): 0.519 µM
IC50 (second compound 0.316 µM): 0.308 µM
IC50 (second compound 1 µM): 0.153 µM
IC50 (second compound 3.16 µM): < 0.0316 µM
IC50 (second compound 10 µM): < 0.0316 µM
viability, T/C [5]: 73.5%
viability, T/C [26]: 69.9%
viability, T/C [31]: 58.6%
viability, T/C [32]: 38.7%
viability, T/C [33]: 10.9%
viability, T/C [34]: 8.59%
viability, T/C [10]: 62.9%
viability, T/C [27]: 61.4%
viability, T/C [35]: 48.8%
viability, T/C [36]: 22.6%
viability, T/C [37]: 0.98%
viability, T/C [38]: 1.62%
viability, T/C [15]: 60.9%
viability, T/C [28]: 53%
viability, T/C [39]: 41.5%
viability, T/C [40]: 18.7%
viability, T/C [41]: 0.06%
viability, T/C [42]: 0.11%
viability, T/C [20]: 0.1%
viability, T/C [29]: 0.13%
viability, T/C [43]: 0.08%
viability, T/C [44]: 0.15%
viability, T/C [45]: 0.04%
viability, T/C [46]: 0.11%
viability, T/C [25]: 0.43%
viability, T/C [30]: 0.37%
viability, T/C [47]: 0.36%
viability, T/C [48]: 0.1%
viability, T/C [49]: 1.07%
viability, T/C [50]: 0.16%

COc1cc(Nc2ncc3c(n2)-c2ccc(Cl)cc2C(c2c(F)cccc2OC)=NC3)ccc1C(=O)O + CNCc1ccccc1-c1csc(C(C)Nc2nc(C)nc3cc(OC)c(OC)cc23)c1
IC50 (second compound 0.1 µM): < 0.0316 µM
IC50 (second compound 0.316 µM): < 0.0316 µM
IC50 (second compound 1 µM): < 0.0316 µM
IC50 (second compound 3.16 µM): < 0.0316 µM
IC50 (second compound 10 µM): < 0.0316 µM
viability, T/C [5]: 16.1%
viability, T/C [26]: 10.8%
viability, T/C [31]: 9.69%
viability, T/C [32]: 10.2%
viability, T/C [33]: 12%
viability, T/C [34]: 12.3%
viability, T/C [10]: 15.6%
viability, T/C [27]: 11.1%
viability, T/C [35]: 10.5%
viability, T/C [36]: 10.8%
viability, T/C [37]: 12.9%
viability, T/C [38]: 12.8%
viability, T/C [15]: 14.7%
viability, T/C [28]: 10.7%
viability, T/C [39]: 8.64%
viability, T/C [40]: 8.26%
viability, T/C [41]: 11.9%
viability, T/C [42]: 11.6%
viability, T/C [20]: 0.1%
viability, T/C [29]: 0.06%
viability, T/C [43]: 0.05%
viability, T/C [44]: 0.05%
viability, T/C [45]: 0.06%
viability, T/C [46]: 0.15%
viability, T/C [25]: 0.14%
viability, T/C [30]: 0.13%
viability, T/C [47]: 0.14%
viability, T/C [48]: 0.13%
viability, T/C [49]: 0.63%
viability, T/C [50]: 0.22%

COc1cc2nccc(Oc3ccc(NC(=O)C4(C(=O)Nc5ccc(F)cc5)CC4)cc3)c2cc1OC + CNCc1ccccc1-c1csc(C(C)Nc2nc(C)nc3cc(OC)c(OC)cc23)c1
IC50 (second compound 0.1 µM): 2.04 µM
IC50 (second compound 0.316 µM): 1.91 µM
IC50 (second compound 1 µM): 1.67 µM
IC50 (second compound 3.16 µM): < 0.0316 µM
IC50 (second compound 10 µM): < 0.0316 µM
viability, T/C [5]: 79.7%
viability, T/C [26]: 80.7%
viability, T/C [31]: 88.2%
viability, T/C [32]: 85.9%
viability, T/C [33]: 29.3%
viability, T/C [34]: 0.95%
viability, T/C [10]: 83%
viability, T/C [27]: 72.5%
viability, T/C [35]: 77.7%
viability, T/C [36]: 73.3%
viability, T/C [37]: 31.8%
viability, T/C [38]: 0.58%
viability, T/C [15]: 72.8%
viability, T/C [28]: 73.5%
viability, T/C [39]: 69.7%
viability, T/C [40]: 69.5%
viability, T/C [41]: 25.8%
viability, T/C [42]: 0.3%
viability, T/C [20]: 0.12%
viability, T/C [29]: 0.17%
viability, T/C [43]: 1.01%
viability, T/C [44]: 0.1%
viability, T/C [45]: 0.06%
viability, T/C [46]: 0.15%
viability, T/C [25]: 0.12%
viability, T/C [30]: 0.11%
viability, T/C [47]: 0.34%
viability, T/C [48]: 0.34%
viability, T/C [49]: 0.71%
viability, T/C [50]: 0.81%
